For one data set, the system named is U373 cells. The experiment in a line: Determination of cell adhesion (cell detachment assay with Methyl violet). The class given is cell-based, human. Conditions: for effect on cell adhesion; additives: effect on the Octenisept® induced reduction: U373, 1 hour, Octenisept® alone or 1:1 with additive 5%, 5 μl to 100 μl medium, FIG. 3. Here is the method: The humane glioblastoma cell line U373 was cultured in Dulbecco's Modified Eagle Medium (DMEM) supplemented with 10% PCS (Gibco™), 2 mM glutamine (PPA) and 100 U/ml penicillin/streptomycin (PAA) at 37° and 5% CO2. The cells were cultivated in monolayer and passaged at 80% confluence. Before carrying out the cell adhesion experiments the cells were transferred onto 96-well plates and brought to confluence.
Cell adhesion was carried out as described in detail in the quotation (Uchide, N. and Toyoda H., (2007) J Immunol Methods, 328 (1-2): 215-9). U373 cells were incubated in 96-well plates with Octenisept® (final concentration 5% (v/v) Octenisept®, this equates 0.005% octenidine dihydrochloride) alone or with the specified additives (5% v/v) for 1 hour in glucose-free Leibovitz medium. After removing the supernatant the standardized washing procedure was executed 3 times after which PBS was added with a motor-controlled pipet which led to the detachment of non-adhesive cells. Afterward only those cells whose matrix had formed a solid connection were fixed with glutaraldehyde and after removal of the glutaraldehyde stained with Methyl violet. The precipitated stain was dissolved with an SDS buffer and the extinction was measured at 550 nm in an ELISA plate reader.
It was now examined whether this additive ensures effects which can contribute to the improvement of wound healing. U373 cells were incubated for 1 hour in Leibovitz medium with Octenisept® alone or with additives (1:1 with glucose 5% or NaCl 0.9%). In each case 5 μl of the respective solution was added to 100 μl of medium. After washing and staining of the adherent cells with crystal violet the extinction was measured at 550 nm (FIG. 2a). The extinction of the controls was set to 1. Statistical significances were determined with Bonferroni's Multiple Comparison Test (**: p<0.01, ***<0.001).
Polyalcohols form a broad compound class and it was therefore examined whether single subgroups have different effects in the adhesion test. U373 cells were incubated in Leibovitz medium with 5 μl additive to 100 μl medium in each case for 1 hour with Octenisept® alone (−) or with additives (1:1 with polyalcohol 5%, glucose, 2-deoxyglucose (2-deoxyG.), lactose, saccharose, fructose, glucuronic acid, polyethylene glycol (PEG), chondroitin-4-sulfate (ch.4-s.), chondroitin-6-sulfate (ch.-6-s.) dermatan sulfate (dermatan-s.) or dextran sulfate (dextran-s.)). After washing and staining of the adherent cells with Methyl violet the extinction was measured at 550 nm. (Bars represent the mean value±SD of two independent experiments (measured in triplicates)). The extinction of the controls was set to 1. Statistical significances were determined with Bonferroni's Multiple Comparison Test (**: p<0.01, ***<0.001).
U373 cells were incubated for one hour with Octenisept® (1:20 in medium) alone (G0) or with Octenisept® and different volumes of a 5% glucose solution (resulting final dilution 1:200-1:2 in Leibovitz medium).

Data set [1] is described as follows: Precipitation assay of Octenisept® with NaCl or carbohydrates. The class given is physicochemical. Conditions: equal parts Octenisept® and diluent (5%), 4° C. Here is the method: The stability of the solubility of the components of Octenisept® in NaCl solution as an indicator for their interaction was determined through the analysis of the precipitates. After the co-incubation of Octenisept® with equal parts of 0.9% w/v NaCl or 5% carbohydrates in sterile aqua bidest for 3, 12, 24 and 72 hours at 4° C. the solutions were centrifuged at 2500 rpm for 5 minutes and the precipitate, if existing, was analyzed with the Zeiss inverted microscope with a digital camera with the METAVIEW micro-photography documentation system.

Where [2] appears, read: concentration series with glucose, FIG. 4.

Entries after “also recorded” stand apart in the source; their conditions may differ.

With `O=CC[C@@H](O)[C@H](O)[C@H](O)CO` [2-deoxyglucose], the “effect on cell adhesion; additives: effect on the Octenisept® induced reduction” value (shortened to “effect … on the Octenisept® induced reduction”) in the data set with U373 cells is listed as “improved”.
On the same count and under the same terms, the value for `O=C(CO)[C@@H](O)[C@H](O)[C@H](O)CO` [fructose] was “improved”.
Regarding `O=C[C@H](O)[C@@H](O)[C@H](O)[C@H](O)CO` [glucose], the “effect of glucose addition on Octenisept® reduced cell adherence” value in the data set with U373 cells (5% glucose solution, final dilution 1:200 or 1:100, FIG. 4) is listed as “tendentially improved”. Besides, in the data set with U373 cells, the “effect … on the Octenisept® induced reduction” value is given as “improved”. Moreover, in the data set on U373 cells (setting [2]), the “optimal glucose addition, final concentration” value stood at 0.1% and the “optimal glucose addition, in the stock solution” value was 2%. The “optimal absolute glucose in the Octenisept solution” value in the data set with U373 cells (corresponds to dilution 1:20 of 5% glucose) was 0.25%.
Regarding `O=C[C@H](O)[C@@H](O)[C@H](O)[C@H](O)C(=O)O` [glucuronic acid], the “effect … on the Octenisept® induced reduction” value was “improved” in the data set on U373 cells and “positive effect” in the data set on U373 cells (listed as Glucuronic acid).
Turning to `OC[C@H]1O[C@@H](O[C@H]2[C@H](O)[C@@H](O)C(O)O[C@@H]2CO)[C@H](O)[C@@H](O)[C@H]1O` (some centres unmarked) [lactose], in the data set with U373 cells, the “effect … on the Octenisept® induced reduction” value is “improved”.
On the same count and under the same terms, the value for `OC[C@H]1O[C@@](CO)(O[C@H]2O[C@H](CO)[C@@H](O)[C@H](O)[C@H]2O)[C@@H](O)[C@@H]1O` [saccharose] was “improved; also recorded: without impairing the effect”.
For chondroitin sulfate, in data set [1], the “sediment / crystals / turbidity of Octenisept® mixed with diluent” value (“sediment / crystals / turbidity” for short) is reported as “quick micro-crystalline or colloidal turbidity”.
chondroitin-4-sulfate: the “effect … on the Octenisept® induced reduction” value in the data set on U373 cells is listed as “significantly reduced the adhesion to under the values of NaCl”.
Regarding chondroitin-6-sulfate, the “effect … on the Octenisept® induced reduction” value in the data set with U373 cells was “significantly reduced the adhesion to under the values of NaCl”.
Regarding dermatan sulfate, the “sediment / crystals / turbidity” value in data set [1] is “quick micro-crystalline or colloidal turbidity”. Further, the “effect … on the Octenisept® induced reduction” value with U373 cells is “significantly reduced the adhesion to under the values of NaCl”.
Regarding dextran sulfate, the “effect … on the Octenisept® induced reduction” value in the data set on U373 cells is reported as “significantly reduced the adhesion to under the values of NaCl”.
Take heparan sulfate: the “sediment / crystals / turbidity” value in data set [1] is “quick micro-crystalline or colloidal turbidity”.
Take polyethylene glycol: the “effect … on the Octenisept® induced reduction” value in the data set on U373 cells is recorded as “improved”; in the data set with U373 cells (listed as PEG), “slight reduction of the positive effect”.

Source of the values: patent US8940324B2, “Octenidine composition” (Artan Holding AG, priority 2008, dated 2015).
